According to US9809583B2 (priority 2014, dated 2017):

Experiments:
androgen receptor (hAR) [1] = biological target: T1, androgen receptor (hAR) (Homo sapiens (Human), UniProt P10275); experiment: biochemical; format: binding; details: 1 nM [3H]MIB, hAR-transfected COS-7 cells, 2 hours; read-out: IC50 [nM] (mean ± SE)
Description: In order to examine binding ability of the agonists of the present invention to androgen receptors, the following in-vitro experiment was performed. African green monkey kidney fibroblast-like cell line, COS-7 (ATCC, #CRL-1651) was seeded in a 48-well plate at a density of 2.5×10^4 cells/well, and cultured for 24 hours. Then, a plasmid hAR-mixed medium was added thereto. […] Thereafter, the cells were lysed and the amount of [3H]MIB bound to the intracellular androgen receptors was measured using a radiation dosimeter.

androgen receptor (hAR) [2] = biological target: T1, androgen receptor (hAR); experiment: Test of transcriptional activity (hAR / ARE-Luc dual-luciferase assay in CHO cells); format: cell-based; details: EC50 [nM] (mean ± SE), CHO cells with hAR and ARE-Luc, 24 hours; 10 nM DHT = 100%
Procedure, shortened: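 CHO cells cultured 24 h, then transfected with hAR and ARE-Luc plasmids. Transfected cells treated with 0.1˜10,000 nM compound for 24 h; transcriptional activity read by dual-luciferase reporter.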

castrated male rats = experiment: Efficacy test in castrated male rat (Hershberger assay); format: in vivo, SD (Sprague-Dawley) rat; details: castrated male SD rats, oral once a day for 14 days
Description: SD (Sprague-Dawley) male rats (7-week-old) were castrated under ketamine/xylazine anesthesia, and 5 rats were randomly assigned to one group. From the next day, the agonists were dissolved in a vehicle solution and orally administered at a dose of 5 ml per kg once a day for 14 days. As the vehicle, DMSO, Co-solvent, and DW were prepared at a ratio of 4:80:16 (v/v/v), and Co-solvent was prepared by mixing PEG400, Ethanol, and Tween 80 at a ratio of 85:10:5 (v/v/v). 24 hours after last administration of the drug, their body weight was measured and killed. Thereafter, levator ani muscle, ventral prostate, and seminal vesicles were removed and weighed (Hershberger assay). The following Table 6 represents the result of the efficacy test in castrated male rats.

T1 sequence (P10275 whole entry): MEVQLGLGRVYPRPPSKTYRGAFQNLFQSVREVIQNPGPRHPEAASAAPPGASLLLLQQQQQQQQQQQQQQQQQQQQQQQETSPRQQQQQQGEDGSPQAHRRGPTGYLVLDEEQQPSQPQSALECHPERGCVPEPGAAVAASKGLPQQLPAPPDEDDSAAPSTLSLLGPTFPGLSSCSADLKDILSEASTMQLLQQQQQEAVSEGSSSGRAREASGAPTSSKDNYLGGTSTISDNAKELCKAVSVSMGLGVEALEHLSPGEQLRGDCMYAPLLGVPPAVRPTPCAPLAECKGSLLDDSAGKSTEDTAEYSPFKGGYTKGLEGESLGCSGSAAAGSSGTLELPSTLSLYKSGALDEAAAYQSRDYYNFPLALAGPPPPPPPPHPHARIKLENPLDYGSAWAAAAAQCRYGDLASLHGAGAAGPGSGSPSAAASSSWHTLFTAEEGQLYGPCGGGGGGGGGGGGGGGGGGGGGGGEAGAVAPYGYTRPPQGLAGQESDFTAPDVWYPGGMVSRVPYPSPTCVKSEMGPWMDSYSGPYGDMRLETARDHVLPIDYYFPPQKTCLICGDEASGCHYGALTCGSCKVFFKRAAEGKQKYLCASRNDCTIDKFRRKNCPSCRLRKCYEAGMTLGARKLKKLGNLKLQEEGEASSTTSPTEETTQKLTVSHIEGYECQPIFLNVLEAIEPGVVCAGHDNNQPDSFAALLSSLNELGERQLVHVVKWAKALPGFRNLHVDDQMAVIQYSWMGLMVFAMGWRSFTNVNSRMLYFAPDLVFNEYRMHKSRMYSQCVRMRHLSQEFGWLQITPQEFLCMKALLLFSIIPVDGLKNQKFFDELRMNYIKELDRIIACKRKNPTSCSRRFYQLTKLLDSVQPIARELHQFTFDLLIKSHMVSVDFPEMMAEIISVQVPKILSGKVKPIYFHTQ

SMILES | IC50 (androgen receptor (hAR) [1]) [nM] | EC50 (androgen receptor (hAR) [2]) [nM] | levator ani muscle weight % relative to intact control group (castrated male rats; 0.3 mg/kg) [%] | seminal vesicles weight % relative to intact control group (castrated male rats; 0.3 mg/kg) [%] | ventral prostate weight % relative to intact control group (castrated male rats; 0.3 mg/kg) [%] | levator ani muscle weight % relative to intact control group (castrated male rats; 1 mg/kg) [%] | seminal vesicles weight % relative to intact control group (castrated male rats; 1 mg/kg) | ventral prostate weight % relative to intact control group (castrated male rats; 1 mg/kg) [%] | levator ani muscle weight % relative to intact control group (castrated male rats; 3 mg/kg) [%] | seminal vesicles weight % relative to intact control group (castrated male rats; 3 mg/kg) [%] | ventral prostate weight % relative to intact control group (castrated male rats; 3 mg/kg) [%] | other results
CC(=O)Nc1ccc(OC[C@@H]2CN(c3ccc(C#N)c(C(F)(F)F)c3)[C@@H](C(F)(F)F)O2)cc1 [Example 25, N-(4-(((2R,5S)-3-(4-cyano-3-(trifluoromethyl)phenyl)-2-(trifluoromethyl)oxazolidin-5-yl)methoxy)phenyl)acetamide] | 8.5 | 0.7 | 38.5 ± 4.8 | 3.4 ± 0.4 | 4.8 ± 1.6 | 61.1 ± 6.3 | 4.7 ± 1.2% | 10.9 ± 3.4 | 79.8 ± 6.7 | 8.7 ± 1.6 | 12.7 ± 2.5 | levator ani muscle weight % relative to intact control group (castrated male rats; 0.01 mg/kg): 6.7 ± 1.6%; seminal vesicles weight % relative to intact control group (castrated male rats; 0.01 mg/kg): 0.9 ± 0.2%; ventral prostate weight % relative to intact control group (castrated male rats; 0.01 mg/kg): 1.8 ± 0.3%; levator ani muscle weight % relative to intact control group (castrated male rats; 0.03 mg/kg): 8.4 ± 1.5%; seminal vesicles weight % relative to intact control group (castrated male rats; 0.03 mg/kg): 0.7 ± 0.2%; ventral prostate weight % relative to intact control group (castrated male rats; 0.03 mg/kg): 1.0 ± 0.4%; levator ani muscle weight % relative to intact control group (castrated male rats; 0.1 mg/kg): 26.5 ± 5.8%; seminal vesicles weight % relative to intact control group (castrated male rats; 0.1 mg/kg): 0.9 ± 0.2%; ventral prostate weight % relative to intact control group (castrated male rats; 0.1 mg/kg): 3.2 ± 0.9%
N#Cc1ccc(OC[C@@H]2CN(c3ccc(C#N)c(C(F)(F)F)c3)[C@@H](C(F)(F)F)O2)cc1 [Example 19, 4-((2R,5S)-5-((4-cyanophenoxy)methyl)-2-(trifluoromethyl)oxazolidin-3-yl)-2-(trifluoromethyl)benzonitrile] | 7.6 | 1 | 7.2 ± 4.3 | 4.8 ± 1.3 | 1.7 ± 0.6 | 45.9 ± 5.8 | 78.2 ± .1% | 10.2 ± 3.9 | 70.6 ± 6.6 | 17.3 ± 5.6 | 11.4 ± 3.0 | levator ani muscle weight % relative to intact control group (castrated male rats; 10 mg/kg): 63.9 ± 4.8%; seminal vesicles weight % relative to intact control group (castrated male rats; 10 mg/kg): 22.9 ± 4.3%; ventral prostate weight % relative to intact control group (castrated male rats; 10 mg/kg): 14.4 ± 2.7%; levator ani muscle weight % relative to intact control group (castrated male rats; 30 mg/kg): 78.4 ± 11.0%; seminal vesicles weight % relative to intact control group (castrated male rats; 30 mg/kg): 33.4 ± 2.0%; ventral prostate weight % relative to intact control group (castrated male rats; 30 mg/kg): 18.3 ± 4.5%; levator ani muscle weight % relative to intact control group (castrated male rats; 100 mg/kg): 68.3 ± 7.3%; seminal vesicles weight % relative to intact control group (castrated male rats; 100 mg/kg): 36.4 ± 9.2%; ventral prostate weight % relative to intact control group (castrated male rats; 100 mg/kg): 18.0 ± 5.2%
